EP4813979A1, “COMPOUND FOR EGFR PROTEIN DEGRADATION AND USE THEREOF” (TYK Medicines, Inc., priority 2023, dated 2025)
Read-outs that look alike come from different tables or passages of the source. Blank lines part the entries; values can stand above or below the compound they belong to.

Tests used:
[1] = Pharmacokinetic test of CD-1 mice; type: in vivo; design: AUC(0-t) / AUC(0-inf): concentration or dose not given beside the values; conditions: male CD-1 mice, single oral gavage (PO), plasma; for AUC(0-inf) / AUC(0-t) / Cmax / MRT last / Tmax: mouse
Method: Plasma was collected from male CD-1 mice after a single gavage administration of the test substance. The plasma was then analyzed to calculate pharmacokinetic parameters.
The solvent is 5% DMSO + 10% Solutol HS-15 + 85% Saline.
Formulation preparation process: Accurately weighed the compound powder, added appropriate volumes of DMSO, Solutol and physiological saline in sequence, and vortexed sonicate at each step to finally form a homogeneous formulation solution.
Experimental animals were housed in the SPF-grade animal facility of Suzhou Xihua New Drug Development Co., Ltd. (License No.: SYXK(Su)2021-0019). Animals were fed normally for at least 3 days after purchase before the experiment, and each mouse was marked with a tail tag. Animals in the oral administration group were fasted overnight the day before administration, and were resumed feeding 4 hours later, with free access to water. Table 4. Sources and Number of Experimental Animals […]
Before administration, checked the state of the administration formulation and ensured its homogeneity by vortexing, stirring or shaking. Calculated the theoretical administration volume for each CD-1 mouse in each group according to the following formula. Theoretical administration volume (mL); = (Dose (mg⋅kg^−1))/(formulation concentration (mg⋅mL^−1)) × animal body weight (kg) [formula]
Table 5 Sample Collection Information
The collected blood was placed in test tubes containing the anticoagulant EDTA-K2 (15 % EDTA-K2 solution), stored on moist ice, and centrifuged within 45 min (1,500 g, 2-8 °C, 10 min). Plasma was then collected. The plasma was stored in pre-chilled centrifuge tubes, flash-frozen on dry ice, and subsequently stored in an ultra-low temperature freezer at -60 °C or lower until shipment.
A quantitative detection method for the analyte was established using Shimadzu liquid chromatography and Triple Quad™ 6500+AB mass spectrometry. The concentration of the parent drug in plasma was analyzed. The analytical results were controlled for variation using quality control samples, with the accuracy of the quality control samples expected to be between 80% and 120%.
The main pharmacokinetic parameters were calculated using a non-compartmental model in Winnonlin Phoenix software. These parameters included the area under the curve (AUC(0-t) and AUC(0-∞)), elimination half-life (T1/2), maximum plasma concentration (Cmax ), and time to reach maximum plasma concentration (Tmax).

[2] = system: A549; experiment: Cell anti-proliferation experiment (CTG); type: cell-based; conditions: Homo sapiens, A549 (wild-type EGFR), class symbol
Procedure, shortened: (§1)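 Cells were seeded at 1500–2500/well and dosed after ~24 h with compound in a 1:4 dilution series up to 10,000 nM, in triplicate. Viability was read by CTG luminescence after 72 h, normalized to the 0.1% DMSO control and medium blank, and IC50 was obtained by curve fitting.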

[3] = system: H1975; experiment: Cell anti-proliferation experiment (CTG); type: cell-based; conditions: Homo sapiens, H1975 (EGFR T790M/L858R), class symbol
Procedure, shortened: as §1

[4] = system: PC-9; experiment: Cell anti-proliferation experiment (CTG); type: cell-based; conditions: Homo sapiens, PC-9 (EGFR exon 19 deletion), class symbol
Procedure, shortened: as §1

[5] = system: HCC827; experiment: Cell anti-proliferation experiment (CTG); type: cell-based; conditions: Homo sapiens, HCC827 (exon 19 deletion), class symbol
Procedure, shortened: as §1

[6] = system: A431; experiment: Cell anti-proliferation experiment (CTG); type: cell-based; conditions: Homo sapiens, A431 (wild-type EGFR), class symbol
Procedure, shortened: as §1

[7] = target: EGFR in Baf3-L858R-T790M-C797S (Homo sapiens, UniProt P00533, C797S/L858R/T790M); experiment: EGFR PROTAC HTRF experiment (total EGFR degradation); type: cell-based
Sequence of EGFR in Baf3-L858R-T790M-C797S (P00533 25-1210 T790M/C797S/L858R): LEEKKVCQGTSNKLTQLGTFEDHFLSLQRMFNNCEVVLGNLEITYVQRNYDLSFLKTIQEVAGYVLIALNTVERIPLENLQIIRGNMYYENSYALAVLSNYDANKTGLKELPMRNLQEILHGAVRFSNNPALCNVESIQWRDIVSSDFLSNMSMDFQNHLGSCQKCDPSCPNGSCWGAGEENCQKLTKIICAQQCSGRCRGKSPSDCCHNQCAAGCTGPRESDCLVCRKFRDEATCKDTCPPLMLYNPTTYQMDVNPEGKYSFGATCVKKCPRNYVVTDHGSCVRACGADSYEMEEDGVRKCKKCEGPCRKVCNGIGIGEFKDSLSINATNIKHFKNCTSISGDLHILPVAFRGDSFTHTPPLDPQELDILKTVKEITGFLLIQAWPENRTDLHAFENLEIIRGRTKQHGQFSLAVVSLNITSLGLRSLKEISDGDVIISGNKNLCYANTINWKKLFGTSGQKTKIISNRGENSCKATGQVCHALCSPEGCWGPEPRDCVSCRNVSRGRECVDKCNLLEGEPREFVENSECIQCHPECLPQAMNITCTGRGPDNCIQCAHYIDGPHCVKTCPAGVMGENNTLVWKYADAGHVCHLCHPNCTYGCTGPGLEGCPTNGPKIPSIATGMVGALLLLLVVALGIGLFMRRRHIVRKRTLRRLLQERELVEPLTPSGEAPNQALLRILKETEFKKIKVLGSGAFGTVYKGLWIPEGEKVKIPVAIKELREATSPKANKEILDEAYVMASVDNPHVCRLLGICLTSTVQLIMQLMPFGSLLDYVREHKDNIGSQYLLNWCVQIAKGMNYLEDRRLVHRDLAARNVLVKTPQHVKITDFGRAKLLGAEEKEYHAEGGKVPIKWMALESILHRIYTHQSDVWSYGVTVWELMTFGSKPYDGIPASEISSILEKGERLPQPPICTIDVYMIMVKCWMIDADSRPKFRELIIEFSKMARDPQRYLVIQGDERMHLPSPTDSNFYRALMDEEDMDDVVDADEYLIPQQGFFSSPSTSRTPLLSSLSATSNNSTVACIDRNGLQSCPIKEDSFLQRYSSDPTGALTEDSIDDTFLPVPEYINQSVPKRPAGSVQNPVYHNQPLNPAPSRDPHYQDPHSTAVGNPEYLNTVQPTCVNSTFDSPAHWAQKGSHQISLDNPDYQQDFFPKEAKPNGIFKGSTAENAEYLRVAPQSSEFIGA
Method: (§2) [table] Among them, B[…] -C797S (abbreviated as Baf3-DTC) is a stable Ba/F3 clone expressing exogenous EGFR gene bearing T790M, C797S and […] triple amino acid mutations, purchased from KYinno; Baf3-L858R-T790M - C797S (abbreviated as Baf3-LTC) is a stable Ba/F3 clone expressing exogenous EGFR gene bearing […], T790M, C797S triple mutations, purchased from KYinno. [table] [table] Dilutded Eu and d2 antibodies 2μl per well with detection buffer 20-fold. Then mixed the two antibody vials thoroughly. [table] Opened EnVision , locate the HTRF program, configured the board, and then read […]. The fitted curve, DC50 and Dmax of this compound could be generated using GraphPad Prism .

[8] = target: EGFR in Baf3-19del-T790M-C797S (Homo sapiens, UniProt P00533, C797S/DEL746-750/T790M); experiment: as above; type: cell-based
Sequence of EGFR in Baf3-19del-T790M-C797S (P00533 with tags, fused parts or gaps DEL746-750/T790M/C797S): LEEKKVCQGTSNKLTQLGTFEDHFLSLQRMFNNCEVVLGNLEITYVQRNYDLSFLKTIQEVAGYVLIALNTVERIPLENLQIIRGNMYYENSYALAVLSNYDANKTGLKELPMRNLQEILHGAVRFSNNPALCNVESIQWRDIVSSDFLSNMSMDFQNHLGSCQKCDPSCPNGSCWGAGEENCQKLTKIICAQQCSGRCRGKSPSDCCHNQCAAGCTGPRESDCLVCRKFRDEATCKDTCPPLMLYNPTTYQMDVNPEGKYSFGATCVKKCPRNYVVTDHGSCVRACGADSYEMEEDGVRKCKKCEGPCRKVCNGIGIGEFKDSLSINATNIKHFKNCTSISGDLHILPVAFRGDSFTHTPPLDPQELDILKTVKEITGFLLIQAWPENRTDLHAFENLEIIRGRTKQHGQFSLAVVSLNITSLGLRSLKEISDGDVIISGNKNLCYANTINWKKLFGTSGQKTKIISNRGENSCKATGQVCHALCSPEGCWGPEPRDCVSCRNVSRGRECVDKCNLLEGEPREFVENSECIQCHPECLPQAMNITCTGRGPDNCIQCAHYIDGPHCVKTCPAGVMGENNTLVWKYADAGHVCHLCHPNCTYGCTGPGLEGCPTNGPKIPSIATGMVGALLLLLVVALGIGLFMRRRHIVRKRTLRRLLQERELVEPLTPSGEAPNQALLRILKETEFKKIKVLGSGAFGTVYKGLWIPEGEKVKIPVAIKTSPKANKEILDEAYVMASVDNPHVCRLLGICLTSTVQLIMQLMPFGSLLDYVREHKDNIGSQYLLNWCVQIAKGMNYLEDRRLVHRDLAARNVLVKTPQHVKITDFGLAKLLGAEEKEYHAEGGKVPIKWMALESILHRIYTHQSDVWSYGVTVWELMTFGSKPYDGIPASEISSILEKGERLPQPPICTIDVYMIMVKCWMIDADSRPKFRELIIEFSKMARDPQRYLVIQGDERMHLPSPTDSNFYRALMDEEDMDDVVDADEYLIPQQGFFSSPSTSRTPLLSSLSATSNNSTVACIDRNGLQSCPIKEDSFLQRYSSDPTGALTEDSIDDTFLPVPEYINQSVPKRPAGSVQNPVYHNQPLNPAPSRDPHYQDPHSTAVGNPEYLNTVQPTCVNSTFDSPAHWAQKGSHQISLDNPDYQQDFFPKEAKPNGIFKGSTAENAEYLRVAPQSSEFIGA
Method: as §2

[9] = system: Baf3-L858R-T790M - C797S (Baf3-LTC); experiment: Cell anti-proliferation experiment (CTG); type: cell-based; conditions: 72 h, class symbol
Procedure, shortened: as §1

[10] = system: Baf3-19del- T790M -C797S (Baf3-DTC); experiment: Cell anti-proliferation experiment (CTG); type: cell-based; conditions: 72 h, class symbol
Procedure, shortened: as §1

SMILES: CCc1cc(Nc2ncc(Cl)c(Nc3ccccc3C(=O)NC)n2)c(OC)cc1N1CCN(C(=O)CN2CCC(c3ccc4c(N5CCC(=O)NC5=O)nn(C)c4c3)C(F)(F)C2)CC1 (centres unmarked) [Comparative Example 1-1, reference compound]
HL_ [1]: 2.41 h | AUC(0-inf) [1]: 14300 ng·h/mL | AUC(0-t) [1]: 14300 ng·h/mL | Cmax [1]: 1740 ng/mL | MRT last [1]: 6.06 h | Tmax [1]: 2 h | IC50 ([2]; 72 hours): 10 to 100 nM | IC50 ([3]; NCI-H1975, 72 hours): 10 to 100 nM | IC50 ([4]; 72 hours): 100 to 1000 nM | IC50 ([5]; 72 hours): 100 to 1000 nM | IC50 ([6]; A-431, 72 hours): 100 to 1000 nM | DC50 ([7]; read-out: Baf3-LTC DC50; Baf3-LTC, incubated 16 hours, HTRF total EGFR): 10 to 100 nM | Dmax ([7]; read-out: Baf3-LTC Dmax): 70 to 100% | DC50 ([8]; read-out: Baf3-DTC DC50; Baf3-DTC, incubated 16 hours, HTRF total EGFR): 10 to 100 nM | Dmax ([8]; read-out: Baf3-DTC Dmax): 70 to 100%

HL_ [1]: 2.67 h | AUC(0-inf) [1]: 28800 ng·h/mL | AUC(0-t) [1]: 28800 ng·h/mL | Cmax [1]: 3170 ng/mL | MRT last [1]: 6.01 h | Tmax [1]: 2 h | IC50 ([2]; A549, 72 h): > 1000 nM | IC50 [9]: 10 to 100 nM | IC50 ([3]; NCI-H1975, 72 h): 10 to 100 nM | IC50 ([4]; PC-9, 72 h): > 1000 nM | IC50 ([5]; HCC827, 72 h): > 1000 nM | IC50 ([6]; A-431, 72 h): > 1000 nM | IC50 [10]: 10 to 100 nM | DC50 ([7]; Baf3-LTC, incubated 16 hours, HTRF total EGFR; read-out: Baf3-LTC DC50): 100 to 1000 nM | Dmax ([7]; Baf3-LTC, incubated 16 hours, HTRF total EGFR; read-out: Baf3-LTC Dmax): 70 to 100% | DC50 ([8]; Baf3-DTC, incubated 16 hours, HTRF total EGFR; read-out: Baf3-DTC DC50): 100 to 1000 nM | Dmax ([8]; Baf3-DTC, incubated 16 hours, HTRF total EGFR; read-out: Baf3-DTC Dmax): 70 to 100%
SMILES: CCc1cc(Nc2ncc(Br)c(Nc3ccccc3C(=O)NC)n2)c(OC)cc1N1CCN(C(=O)CN2CCC(c3cc4c(cc3F)c(N3CCC(=O)NC3=O)nn4C)C(F)(F)C2)CC1 (centres unmarked) [TA-004]

SMILES: CCc1cc(Nc2ncc(Cl)c(Nc3ccccc3P(C)(C)=O)n2)c(OC)cc1N1CCN(C(=O)CN2CCC(c3cc4c(cc3F)c(N3CCC(=O)NC3=O)nn4C)C(F)(F)C2)CC1 (centres unmarked) [TA-005]
HL_ [1]: 2.28 h | AUC(0-inf) [1]: 36300 ng·h/mL | AUC(0-t) [1]: 36300 ng·h/mL | Cmax [1]: 5970 ng/mL | MRT last [1]: 4.59 h | Tmax [1]: 1 h
